The source made the active and inactive calls. The rule behind the calls is not given here.

The test system of data set [1] is Priestia megaterium. In words: Antimicrobial activity against Bacillus megaterium at 1 mM after 24 hrs by agar diffusion method. Type of data set: functional, organism-based.
Data set [2] can be described thus: Toxicity in sheep erythrocytes assessed as hemolysis at up to 100 uM after 20 mins. Type of data set: cell-based, Ovis aries. The settings on record: erythrocyte.
Data set [3] relates to Priestia megaterium. Put plainly: Antimicrobial activity against Bacillus megaterium after 18 hrs by broth microdilution method. Type of data set: functional, organism-based. In general terms: In broth dilution the organism is exposed to a series of concentrations in liquid medium.
Data set [4] is described as follows: Solubility of the compound in 33 % acetonitrile-water. Type of data set: physicochemical. The settings on record: buffer.
The nature of data set [5]: Toxicity in sheep erythrocytes assessed as hemolysis at up to 1000 uM after 20 mins. The settings on record: erythrocyte. Type of data set: cell-based, Ovis aries.
The subject of data set [6] is Priestia megaterium. Put plainly: Antimicrobial activity against Bacillus megaterium at > 50 uM by broth microdilution method. Type of data set: functional, organism-based.

As for `C[C@H]1NC(=O)[C@H](CC(C)(C)C)NC(=O)[C@@H](C)NC(=O)[C@H](CC(C)(C)C)NC(=O)[C@@H](CCCCN)NC(=O)[C@H](CC(C)(C)C)NC(=O)[C@@H](C)NC(=O)[C@H](CC(C)(C)C)NC1=O`, the result with Priestia megaterium [1] and in the data set with Priestia megaterium [3] was Active. Moreover, the Activity result in data set [2] is “Non-toxic”.
With `CC(C)(C)C[C@@H]1NC(=O)[C@@H](CCC(N)=O)NC(=O)[C@H](CC(C)(C)C)NC(=O)[C@@H](CCC(N)=O)NC(=O)[C@H](CC(C)(C)C)NC(=O)[C@@H](CCC(=O)O)NC(=O)[C@H](CC(C)(C)C)NC(=O)[C@@H](CCC(N)=O)NC1=O`, the solubility result in data set [4] is listed as “soluble”.
On to `C[C@@H]1NC(=O)[C@@H](CC(C)(C)C)NC(=O)[C@H](C)NC(=O)[C@@H](CC(C)(C)C)NC(=O)[C@@H](CCCCN)NC(=O)[C@@H](CC(C)(C)C)NC(=O)[C@H](C)NC(=O)[C@@H](CC(C)(C)C)NC1=O`, for which the outcome in the data set with Priestia megaterium [1] and with Priestia megaterium [3] was inactive. Besides, the Activity entry in data set [5] is listed as “Non-toxic”. The result in the data set with Priestia megaterium [6] was Active.
For the compound `C[C@H]1NC(=O)[C@H](CC(C)(C)C)NC(=O)[C@@H](C)NC(=O)[C@H](CC(C)(C)C)NC(=O)[C@@H](C)NC(=O)[C@H](CC(C)(C)C)NC(=O)[C@H](CCCCN)NC(=O)[C@H](CC(C)(C)C)NC1=O`, the outcome in the data set with Priestia megaterium [1] and with Priestia megaterium [3] was inactive. Moreover, in data set [5], the Activity entry is recorded as “Non-toxic”. Further, in the data set on Priestia megaterium [6], the outcome was Active.
On to `C[C@@H]1NC(=O)[C@@H](CC(C)(C)C)NC(=O)[C@H](C)NC(=O)[C@@H](CC(C)(C)C)NC(=O)[C@H](CCCCN)NC(=O)[C@@H](CC(C)(C)C)NC(=O)[C@H](C)NC(=O)[C@@H](CC(C)(C)C)NC1=O`, for which the outcome with Priestia megaterium [1] and in the data set on Priestia megaterium [3] was Active. The Activity entry in data set [2] is “Non-toxic”.
For `CC(C)(C)C[C@H]1NC(=O)[C@H](CCC(N)=O)NC(=O)[C@@H](CC(C)(C)C)NC(=O)[C@H](CCC(N)=O)NC(=O)[C@@H](CC(C)(C)C)NC(=O)[C@H](CCC(=O)O)NC(=O)[C@@H](CC(C)(C)C)NC(=O)[C@H](CCC(N)=O)NC1=O`, the solubility entry in data set [4] is recorded as “soluble”.

(Values after ChEMBL document CHEMBL1821650, “Pharmacodynamic synergy strictly dependent on the co-operative aggregation of enantiomers of cyclic peptides in the bacterial cell membrane” (Bioorg Med Chem Lett, 2011).)
